Data reported in US11840686B2, “Modulation of prekallikrein (PKK) expression” (Ionis Pharmaceuticals, Inc., priority 2013, dated 2023).
pIC50: −log10 of the molar value. Strand notation (5' to 3'): a small letter for the sugar, then the base; units joined by * are phosphorothioate-linked, units joined directly phosphodiester-linked; [ ] holds rarer units or linkages, { } end groups; capitals alone tell only the bases. e = 2'-O-(2-methoxyethyl) (MOE); [5mC] = 5-methylcytosine; d = 2'-deoxy (DNA)

How the values were obtained:
[1] = system: human PKK mRNA; assay: Dose-dependent antisense inhibition of human PKK in HepaRG cells, 0.19-5.00 uM (Example 5); assay type: cell-based; conditions: HepaRG cells; for percent inhibition of PKK mRNA, 0.19 μM: 0.19 μM antisense oligonucleotide; for percent inhibition of PKK mRNA, 0.56 μM: 0.56 μM antisense oligonucleotide; for percent inhibition of PKK mRNA, 1.67 μM: 1.67 μM antisense oligonucleotide; for percent inhibition of PKK mRNA, 5.00 μM: 5.00 μM antisense oligonucleotide
Description: Cells were plated at a density of 20,000 cells per well and transfected using electroporation with 0.19 μM, 0.56 μM, 1.67 μM, and 5.00 μM concentrations of antisense oligonucleotide. After a treatment period of approximately 16 hours, RNA was isolated from the cells and PKK mRNA levels were measured by quantitative real-time PCR. Human PKK primer probe set RTS3454 was used to measure mRNA levels. PKK mRNA levels were adjusted according to total RNA content, as measured by RIBOGREEN®. The antisense oligonucleotides were tested in a series of experiments that had similar culture conditions.
The half maximal inhibitory concentration (IC50) of each oligonucleotide is also presented.

[2] = system: human PKK mRNA; assay: Antisense inhibition of human PKK mRNA in HepaRG cells, 5,000 nM (Example 2); assay type: cell-based
How it was run: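 Chimeric MOE gapmers with full phosphorothioate backbones were tested once at 5,000 nM in electroporated HepaRG cells. After about 24 hours, quantitative PCR measured PKK mRNA relative to untreated control cells.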

[3] = electroporation, approximately 16 hours, Table 39
[4] = 4 point dose response, Table 39
[5] = electroporation, approximately 16 hours, Table 35
[6] = electroporation, approximately 16 hours, Table 36
[7] = 4 point dose response, Table 36
[8] = electroporation, approximately 16 hours, Table 38

546870 (e[5mC]*eT*eG*eT*eA*d[5mC]*d[5mC]*dT*dA*dT*dA*dA*d[5mC]*dT*d[5mC]*eT*eA*eA*e[5mC]*eA; antisense) [compound 546870]
percent inhibition of PKK at 0.19 μM [1, 3]: 35% | percent inhibition of PKK at 0.56 μM [1, 3]: 42% | percent inhibition of PKK at 1.67 μM [1, 3]: 80% | percent inhibition of PKK at 5.00 μM [1, 3]: 95% | pIC50 [1, 4]: 6.30 | percent inhibition of PKK mRNA, 0.19 μM [1]: 36% | percent inhibition of PKK mRNA, 0.56 μM [1]: 34% | percent inhibition of PKK mRNA, 1.67 μM [1]: 61% | percent inhibition of PKK mRNA, 5.00 μM [1]: 91% | pIC50 ([1]; 0.19-5.00 μM): 6.00 | % inhibition ([2]; human PKK mRNA in HepaRG cells, 5-10-5 gapmers, Table 14): 87%

546967 (e[5mC]*eA*e[5mC]*e[5mC]*eG*d[5mC]*dG*d[5mC]*dG*dA*dA*dT*dG*d[5mC]*d[5mC]*eT*eG*e[5mC]*e[5mC]*eT; antisense) [compound 546967]
percent inhibition of PKK at 0.19 μM [1, 5]: 20% | percent inhibition of PKK at 0.56 μM [1, 5]: 39% | percent inhibition of PKK at 1.67 μM [1, 5]: 76% | percent inhibition of PKK at 5.00 μM [1, 5]: 71% | percent inhibition of PKK at 5.00 μM ([1]; electroporation, approximately 16 hours, Table 41): 92% | percent inhibition of PKK at 0.19 0μM ([1]; 0.19 0μM, electroporation, approximately 16 hours, Table 41): 22% | percent inhibition of PKK at 0.56 0μM ([1]; 0.56 0μM, electroporation, approximately 16 hours, Table 41): 45% | percent inhibition of PKK at 1.67 1μM ([1]; 1.67 1μM, electroporation, approximately 16 hours, Table 41): 74% | pIC50 ([1]; 4 point dose response, Table 35): 6.15 | pIC50 ([1]; 4 point dose response, Table 41): 6.15 | % inhibition ([2]; HepaRG cells, 5,000 nM antisense oligonucleotide, 5-10-5 gapmers, Table 16): 93%

547453 (antisense eT*e[5mC]*eA*eT*eG*dA*dT*dT*d[5mC]*d[5mC]*d[5mC]*dT*dT*d[5mC]*dT*eG*eA*eG*eA*e[5mC]) [compound 547453]
percent inhibition of PKK at 0.19 μM [1, 3]: 25% | percent inhibition of PKK at 0.56 μM [1, 3]: 40% | percent inhibition of PKK at 1.67 μM [1, 3]: 54% | percent inhibition of PKK at 5.00 μM [1, 3]: 92% | pIC50 [1, 4]: 6.10 | % inhibition ([2]; Table 9 experiment, HepaRG cells, 20,000 cells per well, electroporation with 5,000 nM antisense oligonucleotide, approx. 24 hours, PKK mRNA by RT-PCR (RTS3454), relative to untreated control cells): 81% | % inhibition ([2]; Table 10 experiment, HepaRG cells, 20,000 cells per well, electroporation with 5,000 nM antisense oligonucleotide, approx. 24 hours, PKK mRNA by RT-PCR (RTS3454), relative to untreated control cells): 81%

548770 (antisense eT*eA*eA*e[5mC]*dA*dG*dT*dA*dT*d[5mC]*dA*d[5mC]*dT*eG*eT*e[5mC]*e[5mC]) [compound 548770]
percent inhibition of PKK at 0.19 μM [1, 6]: 26% | percent inhibition of PKK at 0.56 μM [1, 6]: 54% | percent inhibition of PKK at 1.67 μM [1, 6]: 77% | percent inhibition of PKK at 5.00 μM [1, 6]: 91% | pIC50 [1, 7]: 6.30 | percent inhibition of PKK mRNA, 0.19 μM [1]: 9% | percent inhibition of PKK mRNA, 0.56 μM [1]: 0% | percent inhibition of PKK mRNA, 1.67 μM [1]: 61% | percent inhibition of PKK mRNA, 5.00 μM [1]: 92% | pIC50 ([1]; 0.19-5.00 μM): 5.77 | % inhibition ([2]; human PKK mRNA, HepaRG cells, 5,000 nM antisense oligonucleotide, Table 18): 92%

546247 (e[5mC]*e[5mC]*eA*eA*eA*dG*dT*d[5mC]*dA*dA*d[5mC]*dT*d[5mC]*d[5mC]*d[5mC]*eG*eG*eG*eT*eA; antisense) [compound 546247]
percent inhibition of PKK at 0.19 μM [1, 6]: 0% | percent inhibition of PKK at 0.56 μM [1, 6]: 29% | percent inhibition of PKK at 1.67 μM [1, 6]: 71% | percent inhibition of PKK at 5.00 μM [1, 6]: 88% | pIC50 [1, 7]: 5.96 | % inhibition ([2]; Table 7, HepaRG cells, electroporation with 5,000 nM antisense oligonucleotide, approx. 24 hours, PKK mRNA by RT-PCR (RTS3454), relative to untreated control cells): 90%

547293 (antisense e[5mC]*eA*eT*e[5mC]*eT*dG*dG*d[5mC]*dA*dG*dT*dA*dT*dT*dG*eG*eG*e[5mC]*eA*eT) [compound 547293]
percent inhibition of PKK at 0.19 μM [1, 6]: 53% | percent inhibition of PKK at 0.56 μM [1, 6]: 57% | percent inhibition of PKK at 1.67 μM [1, 6]: 80% | percent inhibition of PKK at 5.00 μM [1, 6]: 86% | pIC50 [1, 7]: 6.70 | percent inhibition of PKK mRNA, 0.19 μM [1]: 0% | percent inhibition of PKK mRNA, 0.56 μM [1]: 45% | percent inhibition of PKK mRNA, 1.67 μM [1]: 65% | percent inhibition of PKK mRNA, 5.00 μM [1]: 70% | pIC50 ([1]; 0.19-5.00 μM): 5.89 | % inhibition ([2]; HepaRG cells, electroporation with 5,000 nM antisense oligonucleotide, approximately 24 hours, PKK mRNA by RT-PCR (RTS3454), relative to untreated control cells, Table 5 experiment): 92%

547006 (e[5mC]*eG*e[5mC]*e[5mC]*eA*dT*d[5mC]*dT*dG*d[5mC]*d[5mC]*d[5mC]*dT*dG*dT*eA*e[5mC]*eA*eG*eA; antisense) [compound 547006]
percent inhibition of PKK at 0.19 μM [1, 8]: 0% | percent inhibition of PKK at 0.56 μM [1, 8]: 0% | percent inhibition of PKK at 1.67 μM [1, 8]: 54% | percent inhibition of PKK at 5.00 μM [1, 8]: 77% | pIC50 ([1]; 4 point dose response, Table 38): 5.82 | % inhibition ([2]; HepaRG cells, 5,000 nM antisense oligonucleotide, 5-10-5 gapmers, Table 17): 39%
